{"source": "patent US10654836B2", "about": "“Pyrimidine derivative, method for preparing same and use thereof in medicine” (Zhejiang Hisun Pharmaceutical Co., Ltd., priority 2016, dated 2020)", "key": {"[1]": {"system": "hepatocellular carcinoma tumor cell Huh7 xenografts", "assay": "Growth inhibition of Huh7 xenografts in tumor-bearing BALB/c nude mice", "format": "in vivo", "conditions": "bid", "protocol": "On day 0, Huh7 cells were cultured in DMEM medium containing 10% of fetal bovine serum, 100 U of penicillin, and 100 μg/mL of streptomycin. And cultured in an incubator of 37° C., 5% CO2.\nEach mouse was inoculated subcutaneously in the right axilla with 150 μL of cell suspension (5.0×10^6 cells/mouse) under sterile conditions. On day 12 after inoculation, when the tumor grew to a volume of 200-300 mm^3, mice with similar tumor volume and good shape were selected (the shape was as single spherical as possible, no irregular shape or multiple tumors gathered together) and divided into 5 groups, each group had 9 mice.\n(§1) Each group of animals was administrated (intraperitoneal injection (ip) or oral administration (po)) a test substance twice a day (bid) at a fix time per day according to the body weight of the animals. The first dose was administered on the day of grouping ([…]), and continued for 22 days, the body weight of the animals was recorded daily.\nThe formation of tumor in the inoculated part of each group of animals was observed. The long diameter (Y) and short diameter (X) of the tumor nodules were measured twice a week using vernier calipers and calculated according to the following formula: Volume of tumor nodules(V): V=(X^2Y)/2.\nEvaluation index of antitumor activity: tumor growth inhibition rate TGI (%), relative tumor proliferation rate T/C (%).\nThe relative tumor volume (RTV) is calculated as: RTV=100×TVt/TVinitial\nwherein, TVinitial is the tumor volume measured at the time of grouping administration; TVt is the tumor volume at each measurement during administration.\nThe calculation formula for the relative tumor proliferation rate (% T/C) is: % T/C=100%×(RTVT/RTVC)\nwherein, RTVT represents RTV of the treatment group; RTVC represents RTV of the solvent control group.\nwherein, TVt(T) represents the tumor volume at each measurement in the treatment group; TVinitial(T) represents the tumor volume of the treatment group at the time of grouping administration; TVt(C) represents the tumor volume at each measurement in the solvent control group; TVinitial(C) represents the tumor volume of the solvent control group at the time of grouping administration.\nwherein, WC represents the tumor weight of the control group; WT represents the tumor weight of the treatment group."}, "[2]": {"system": "hepatocellular carcinoma tumor cells Huh7", "assay": "Huh7 tumor cell proliferation inhibition (CCK-8)", "format": "cell-based, human", "conditions": "72 hours culture", "experimental": "For the FGFR4 subtype, hepatocellular carcinoma tumor cells Huh7 (purchased from the Cell Resource Center of Shanghai Institutes for Biological Sciences, Chinese Academy of Sciences) were used to determine the inhibition against the activity of hepatocellular carcinoma tumor cells. Huh7 cells were cultured in a DMEM medium containing 10% of fetal bovine serum, 100 U of penicillin and 100 μg/mL of streptomycin. Cultured in an incubator of 37° C., 5% CO2. Hepatocellular carcinoma tumor cell activity was measured by using a kit of Cell Counting Kit-8 (Dojindo, Dojindo Molecular Technologies, Inc).\nThe experimental method was carried out according to the steps of the kit instructions, and is briefly described as follows: the test compound was first dissolved in DMSO to prepare a stock solution, and then gradiently diluted with the corresponding medium of the cells to prepare a test sample, and the final concentration of the compound was in the range of 30 μM to 0.01 nM. Tumor cells in the logarithmic phase were seeded into 96-well cell culture plates at a suitable density, cultured in an incubator of 37° C., 5% CO2 overnight, then test compound samples were added and continued to culture the cells for 72 hours."}, "[3]": {"assay": "Body weight and weight loss rate of Huh7 tumor-bearing BALB/c nude mice during administration", "format": "in vivo", "conditions": "25 mg/kg IP, bid", "protocol": "as §1\nThe calculation formula for the weight loss rate of animals is (see FIG. 3 for the results): Weight loss rate of animals=100%×(BWinitial−BWt)/BWinitial\nwherein, BWt represents the body weight of the animal at each measurement during administration; BWinitial represents the body weight of the animal at the time of grouping administration."}, "[4]": {"conditions": "25 mg/kg IP, end of the experiment"}}}
{"smiles": "C=CC(=O)Nc1cc(N2CCN(CC)C3(CC3)C2)ccc1Nc1cc(N(C)C(=O)Nc2c(Cl)c(OC)cc(OC)c2Cl)ncn1", "note": "[Example 5, N-(2-((6-(3-(2,6-Dichloro-3,5-dimethoxyphenyl)-1-methylureido)pyrimidin-4-yl)amino)-5-(4-ethyl-4,7-diazaspiro[2.5]octan-7-yl)phenyl)acrylamide]", "values": [{"measurement": "Tumor weight (g) Mean ± standard error", "setting": "[1]; [4]", "value": "0.8393 ± 0.0602", "unit": "g"}, {"measurement": "Tumor weight (g) Mean ± standard error", "setting": "[1]; 50 mg/kg IP, end of the experiment", "value": "0.6473 ± 0.0597", "unit": "g"}, {"measurement": "Tumor weight (g) Mean ± standard error", "setting": "[1]; 300 mg/kg PO, end of the experiment", "value": "0.0562 ± 0.0069", "unit": "g"}]}
{"smiles": "C=CC(=O)Nc1cc(N2CCN(CC)CC2)ccc1Nc1cc(N(C)C(=O)Nc2c(Cl)c(OC)cc(OC)c2Cl)ncn1", "note": "[Example 108 of WO2015057938, reference compound]", "values": [{"measurement": "IC50", "setting": "[2]", "value": 18, "unit": "nM"}, {"measurement": "Tumor growth inhibition rate (TGI %)", "setting": "[1]; 25 mg/kg IP, Day 16 after inoculation", "value": 34, "unit": "%"}, {"measurement": "Tumor growth inhibition rate (TGI %)", "setting": "[1]; 25 mg/kg IP, Day 20 after inoculation", "value": 21, "unit": "%"}, {"measurement": "Tumor growth inhibition rate (TGI %)", "setting": "[1]; 25 mg/kg IP, Day 23 after inoculation", "value": 21, "unit": "%"}, {"measurement": "Tumor growth inhibition rate (TGI %)", "setting": "[1]; 25 mg/kg IP, Day 27 after inoculation", "value": 29, "unit": "%"}, {"measurement": "Tumor growth inhibition rate (TGI %)", "setting": "[1]; 25 mg/kg IP, Day 30 after inoculation", "value": 24, "unit": "%"}, {"measurement": "Tumor growth inhibition rate (TGI %)", "setting": "[1]; 25 mg/kg IP, Day 34 after inoculation", "value": 16, "unit": "%"}, {"measurement": "Tumor weight (g) Mean ± standard error", "setting": "[1]; [4]", "value": "0.9106 ± 0.0583", "unit": "g"}, {"measurement": "Tumor weight inhibition rate (%)", "setting": "[1]; [4]", "value": 2.2, "unit": "%"}, {"measurement": "Animal body weight ± standard error", "setting": "[3]; Day 13 after inoculation", "value": "18.0 ± 0.3", "unit": "g"}, {"measurement": "weight loss rate (%)", "setting": "[3]; Day 13 after inoculation", "value": 0, "unit": "%"}, {"measurement": "Animal body weight ± standard error", "setting": "[3]; Day 16 after inoculation", "value": "18.1 ± 0.3", "unit": "g"}, {"measurement": "weight loss rate (%)", "setting": "[3]; Day 16 after inoculation", "value": "−0.62", "unit": "%"}, {"measurement": "Animal body weight ± standard error", "setting": "[3]; Day 20 after inoculation", "value": "19.2 ± 0.4", "unit": "g"}, {"measurement": "weight loss rate (%)", "setting": "[3]; Day 20 after inoculation", "value": "−6.7", "unit": "%"}, {"measurement": "Animal body weight ± standard error", "setting": "[3]; Day 23 after inoculation", "value": "18.3 ± 0.2", "unit": "g"}, {"measurement": "weight loss rate (%)", "setting": "[3]; Day 23 after inoculation", "value": "−2.0", "unit": "%"}, {"measurement": "Animal body weight ± standard error", "setting": "[3]; Day 27 after inoculation", "value": "18.4 ± 0.3", "unit": "g"}, {"measurement": "weight loss rate (%)", "setting": "[3]; Day 27 after inoculation", "value": "−2.7", "unit": "%"}, {"measurement": "Animal body weight ± standard error", "setting": "[3]; Day 30 after inoculation", "value": "18.7 ± 0.2", "unit": "g"}, {"measurement": "weight loss rate (%)", "setting": "[3]; Day 30 after inoculation", "value": "−4.2", "unit": "%"}, {"measurement": "Animal body weight ± standard error", "setting": "[3]; Day 34 after inoculation", "value": "18.9 ± 0.3", "unit": "g"}, {"measurement": "weight loss rate (%)", "setting": "[3]; Day 34 after inoculation", "value": "−5.0", "unit": "%"}]}
